Data as given in ChEMBL document CHEMBL5523762, “Discovery of Potent and Selective G9a Degraders for the Treatment of Pancreatic Cancer” (J Med Chem, 2024).
Active and inactive are the calls of the source. The rule behind the calls is not given here.

Assays:
[1] = molecular target: T1, Histone-lysine N-methyltransferase EHMT2 (Homo sapiens) (UniProt Q96KQ7); test: Induction of G9a degradation in human PANC-1 cells assessed as reduction in G9a protein level at 50 uM measured at 16 hrs by Western blot analysis; format: cell-based
T1 sequence (whole entry): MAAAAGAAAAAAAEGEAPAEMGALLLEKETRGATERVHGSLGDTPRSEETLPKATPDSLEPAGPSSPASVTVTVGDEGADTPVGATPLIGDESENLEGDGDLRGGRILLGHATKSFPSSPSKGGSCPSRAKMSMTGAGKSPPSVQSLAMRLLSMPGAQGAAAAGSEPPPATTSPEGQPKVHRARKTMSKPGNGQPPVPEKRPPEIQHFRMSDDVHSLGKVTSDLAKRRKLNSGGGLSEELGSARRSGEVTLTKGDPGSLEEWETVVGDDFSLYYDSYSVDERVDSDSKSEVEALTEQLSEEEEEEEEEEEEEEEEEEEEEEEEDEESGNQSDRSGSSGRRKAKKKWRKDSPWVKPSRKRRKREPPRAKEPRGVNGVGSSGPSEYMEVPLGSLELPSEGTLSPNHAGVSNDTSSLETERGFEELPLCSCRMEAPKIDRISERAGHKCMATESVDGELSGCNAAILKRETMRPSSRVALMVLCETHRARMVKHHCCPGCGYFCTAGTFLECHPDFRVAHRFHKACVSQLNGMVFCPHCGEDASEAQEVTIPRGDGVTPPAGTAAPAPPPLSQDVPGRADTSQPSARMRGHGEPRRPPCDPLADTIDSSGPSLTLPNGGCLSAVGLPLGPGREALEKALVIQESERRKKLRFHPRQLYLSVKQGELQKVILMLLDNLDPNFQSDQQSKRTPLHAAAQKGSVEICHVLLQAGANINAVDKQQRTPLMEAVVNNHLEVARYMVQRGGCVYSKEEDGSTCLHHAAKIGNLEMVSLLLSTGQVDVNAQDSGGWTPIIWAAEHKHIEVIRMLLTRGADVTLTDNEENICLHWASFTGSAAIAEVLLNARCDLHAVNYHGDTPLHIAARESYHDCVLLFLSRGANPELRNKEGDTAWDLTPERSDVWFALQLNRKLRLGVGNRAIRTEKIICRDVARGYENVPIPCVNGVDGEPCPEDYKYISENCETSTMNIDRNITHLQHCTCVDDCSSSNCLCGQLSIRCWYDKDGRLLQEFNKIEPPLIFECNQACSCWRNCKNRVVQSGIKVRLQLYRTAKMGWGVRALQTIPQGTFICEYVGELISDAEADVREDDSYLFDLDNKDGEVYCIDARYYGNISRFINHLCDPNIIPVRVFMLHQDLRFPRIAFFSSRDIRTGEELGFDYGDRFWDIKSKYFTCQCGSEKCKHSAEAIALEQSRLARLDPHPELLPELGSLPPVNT

[2] = molecular target: T1, Histone-lysine N-methyltransferase EHMT2 (Homo sapiens); test: Inhibition of N-terminal GST tagged human recombinant G9a (785 to 1210 residues) expressed in Escherichia coli using H3(1 to 21)K9me1 and SAM as substrates incubated for 1 hr by HTRF assay
[3] = molecular target: T2, Protein cereblon/Histone-lysine N-methyltransferase EHMT2 (Homo sapiens, UniProt Q96KQ7+Q96SW2); test: PROTAC activity at CRBN/G9a in human PANC-1 cells assessed as induction of G9a degradation at 0.1 uM measured after 24 hrs by Western blot analysis; format: cell-based
[4] = molecular target: T2, Protein cereblon/Histone-lysine N-methyltransferase EHMT2; test: PROTAC activity at CRBN/G9a in human PANC-1 cells assessed as induction of G9a degradation at 1 uM by Western blot analysis; format: cell-based
[5] = molecular target: T1, Histone-lysine N-methyltransferase EHMT2 (Homo sapiens); test: Induction of G9a degradation in human PANC-1 cells assessed as reduction in G9a protein level at 10 uM in presence of 1 uM UNC0638 by Western blot analysis; format: cell-based
[6] = molecular target: T1, Histone-lysine N-methyltransferase EHMT2 (Homo sapiens); test: Induction of G9a degradation in human PANC-1 cells assessed as reduction in G9a protein level at 10 uM by Western blot analysis; format: cell-based
[7] = molecular target: T2, Protein cereblon/Histone-lysine N-methyltransferase EHMT2; test: PROTAC activity at CRBN/G9a in human PANC-1 cells assessed as induction of G9a degradation at 0.1 to 1 uM measured after 24 hrs by Western blot analysis; format: cell-based; settings: dose 0.1-1 µM

T2 sequence (Q96SW2 whole entry partner, one chain of several): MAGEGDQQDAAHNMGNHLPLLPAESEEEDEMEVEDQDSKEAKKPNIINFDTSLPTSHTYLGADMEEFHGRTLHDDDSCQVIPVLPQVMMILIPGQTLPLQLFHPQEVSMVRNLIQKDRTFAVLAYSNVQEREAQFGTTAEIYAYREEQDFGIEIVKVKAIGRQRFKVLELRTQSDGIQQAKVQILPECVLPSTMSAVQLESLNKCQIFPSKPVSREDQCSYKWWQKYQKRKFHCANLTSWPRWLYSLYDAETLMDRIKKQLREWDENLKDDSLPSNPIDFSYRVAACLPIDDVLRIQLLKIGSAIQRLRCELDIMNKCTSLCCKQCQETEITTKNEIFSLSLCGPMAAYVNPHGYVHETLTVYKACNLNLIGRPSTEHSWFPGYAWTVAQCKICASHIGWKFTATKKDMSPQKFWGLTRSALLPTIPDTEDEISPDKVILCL

N=C(NCCCCCCNC(=N)NC(=N)Nc1ccc(Cl)cc1)NC(=N)Nc1ccc(Cl)cc1
Activity [1]: Active

COc1cc2c(NC3CCN(CCCC(=O)NCCOCCOCCNc4cccc5c4C(=O)N(C4CCC(=O)NC4=O)C5=O)CC3)nc(C3CCCCC3)nc2cc1OCCCN1CCCC1 (stereo not given)
inhibition [2]: Active

COc1cc2c(NC3CCN(CCCC(=O)NCCCCCCCCOc4cccc5c4C(=O)N(C4CCC(=O)NC4=O)C5=O)CC3)nc(C3CCCCC3)nc2cc1OCCCN1CCCC1 (stereo not given)
inhibition [2]: Active

COc1cc2c(NC3CCN(CCCC(=O)NCCCCCCCCCCNc4cccc5c4C(=O)N(C4CCC(=O)NC4=O)C5=O)CC3)nc(C3CCCCC3)nc2cc1OCCCN1CCCC1 (stereo not given)
Activity [3]: inactive
inhibition [2]: Active

COc1cc2c(NC3CCN(CCCC(=O)NCCCCCCCCNc4cccc5c4C(=O)N(C4CCC(=O)N(C)C4=O)C5=O)CC3)nc(C3CCCCC3)nc2cc1OCCCN1CCCC1 (stereo not given)
Activity [4]: inactive

COc1cc2c(NC3CCN(CCCC(=O)NCCCCCCCCCNc4cccc5c4C(=O)N(C4CCC(=O)NC4=O)C5=O)CC3)nc(C3CCCCC3)nc2cc1OCCCN1CCCC1 (stereo not given)
Activity [3]: inactive
inhibition [2]: Active

O=C1CCC(N2C(=O)c3ccccc3C2=O)C(=O)N1 (stereo not given)
Activity [5]: inactive
Activity [6]: inactive

COc1cc2c(NC3CCN(CCCC(=O)NCCCCCCCCNc4cccc5c4C(=O)N(C4CCC(=O)NC4=O)C5=O)CC3)nc(C3CCCCC3)nc2cc1OCCCN1CCC(F)(F)CC1 (stereo not given)
Activity [4]: inactive

COc1cc2c(NC3CCN(C(=O)CCC(=O)NCCCCCCCCNc4cccc5c4C(=O)N(C4CCC(=O)NC4=O)C5=O)CC3)nc(C3CCCCC3)nc2cc1OCCCN1CCCC1 (stereo not given)
Activity [7]: inactive

COc1cc2c(NC3CCN(CCCC(=O)NCCCCCCCCNc4ccc5c(c4)C(=O)N(C4CCC(=O)NC4=O)C5=O)CC3)nc(C3CCCCC3)nc2cc1OCCCN1CCCC1 (stereo not given)
inhibition [2]: Active

COc1cc2c(NC3CCN(CCCC(=O)NCCCCCCCNc4cccc5c4C(=O)N(C4CCC(=O)NC4=O)C5=O)CC3)nc(C3CCCCC3)nc2cc1OCCCN1CCCC1 (stereo not given)
Activity [3]: inactive
inhibition [2]: Active
